Columns and labels:
Assay in all cases: relative viability (nuclei count vs DMSO), 5 days (fraction); higher = more cells survive
PC-3 [JPC-3] = system: PC-3 [JPC-3]
Method in brief: (§1)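 Values are medians from duplicate plates. Each reflects relative viability, defined as the nuclei count of treated wells over that of vehicle wells. Lung cancer cell lines in 1536-well plates were pin-tool dosed one day after seeding with one drug alone or with a fixed anchor-drug dose plus five library-drug doses (not always all listed) in √10 steps, then fixed, stained and imaged at 4× after 5 days.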

CAL-12T = system: CAL-12T
Method in brief: as §1

NCI-H1915 = system: NCI-H1915
Method in brief: as §1

BEN = system: BEN
Method in brief: as §1

NCI-H1651 = system: NCI-H1651
Method in brief: as §1

NCI-H441 = system: NCI-H441
Method in brief: as §1

NCI-H1944 = system: NCI-H1944
Method in brief: as §1

NCI-H460 = system: NCI-H460
Method in brief: as §1

201T = system: 201T
Method in brief: as §1

NCI-H727 = system: NCI-H727
Method in brief: as §1

NCI-H2087 = system: NCI-H2087
Method in brief: as §1

LCLC-97TM1 = system: LCLC-97TM1
Method in brief: as §1

NCI-H2023 = system: NCI-H2023
Method in brief: as §1

A-427 = system: A-427
Method in brief: as §1

LC-2-ad = system: LC-2-ad
Method in brief: as §1

NCI-H1792 = system: NCI-H1792
Method in brief: as §1

NCI-H520 = system: NCI-H520
Method in brief: as §1

NCI-H596 = system: NCI-H596
Method in brief: as §1

H3255 = system: H3255
Method in brief: as §1

NCI-H1650 = system: NCI-H1650
Method in brief: as §1

HCC-15 = system: HCC-15
Method in brief: as §1

Clc1ccc(Nc2nnc(Cc3ccncc3)c3ccccc23)cc1 [Vatalanib] + CC1(C)CCC(c2ccc(Cl)cc2)=C(CN2CCN(c3ccc(C(=O)NS(=O)(=O)c4ccc(N[C@H](CCN5CCOCC5)CSc5ccccc5)c(S(=O)(=O)C(F)(F)F)c4)cc3)CC2)C1 [Navitoclax] (partner 0.5 µM)
relative viability (PC-3 [JPC-3]; first compound 0.04 µM): 0.725 | relative viability (PC-3 [JPC-3]; first compound 0.1265 µM): 0.832 | relative viability (PC-3 [JPC-3]; first compound 0.4 µM): 0.848 | relative viability (PC-3 [JPC-3]; first compound 1.265 µM): 0.739 | relative viability (PC-3 [JPC-3]; first compound 4 µM): 0.757 | relative viability (CAL-12T; first compound 0.04 µM): 1.17 | relative viability (CAL-12T; first compound 0.1265 µM): 1.2 | relative viability (CAL-12T; first compound 0.4 µM): 1.28 | relative viability (CAL-12T; first compound 1.265 µM): 1.15 | relative viability (CAL-12T; first compound 4 µM): 1.31 | relative viability (NCI-H1915; first compound 0.04 µM): 0.805 | relative viability (NCI-H1915; first compound 0.1265 µM): 0.796 | relative viability (NCI-H1915; first compound 0.4 µM): 0.771 | relative viability (NCI-H1915; first compound 1.265 µM): 0.794 | relative viability (NCI-H1915; first compound 4 µM): 0.779 | relative viability (BEN; first compound 0.04 µM): 0.0773 | relative viability (BEN; first compound 0.1265 µM): 0.0662 | relative viability (BEN; first compound 0.4 µM): 0.0617 | relative viability (BEN; first compound 1.265 µM): 0.0622 | relative viability (BEN; first compound 4 µM): 0.0608 | relative viability (NCI-H1651; first compound 0.04 µM): 0.928 | relative viability (NCI-H1651; first compound 0.1265 µM): 1.09 | relative viability (NCI-H1651; first compound 0.4 µM): 1.11 | relative viability (NCI-H1651; first compound 1.265 µM): 1.02 | relative viability (NCI-H1651; first compound 4 µM): 1.08 | relative viability (NCI-H441; first compound 0.04 µM): 0.886 | relative viability (NCI-H441; first compound 0.1265 µM): 0.685 | relative viability (NCI-H441; first compound 0.4 µM): 0.469 | relative viability (NCI-H441; first compound 1.265 µM): 0.755 | relative viability (NCI-H441; first compound 4 µM): 0.54 | relative viability (NCI-H1944; first compound 0.04 µM): 1.01 | relative viability (NCI-H1944; first compound 0.1265 µM): 1.02 | relative viability (NCI-H1944; first compound 0.4 µM): 1.06 | relative viability (NCI-H1944; first compound 1.265 µM): 1.08 | relative viability (NCI-H1944; first compound 4 µM): 1.06 | relative viability (NCI-H460; first compound 0.04 µM): 1.17 | relative viability (NCI-H460; first compound 0.1265 µM): 1.09 | relative viability (NCI-H460; first compound 0.4 µM): 1.11 | relative viability (NCI-H460; first compound 1.265 µM): 1.04 | relative viability (NCI-H460; first compound 4 µM): 1.11 | relative viability (201T; first compound 0.04 µM): 1.17 | relative viability (201T; first compound 0.1265 µM): 1.27 | relative viability (201T; first compound 0.4 µM): 1.25 | relative viability (201T; first compound 1.265 µM): 1.25 | relative viability (201T; first compound 4 µM): 1.21 | relative viability (NCI-H727; first compound 0.04 µM): 0.428 | relative viability (NCI-H727; first compound 0.1265 µM): 0.403 | relative viability (NCI-H727; first compound 0.4 µM): 0.516 | relative viability (NCI-H727; first compound 1.265 µM): 0.407 | relative viability (NCI-H727; first compound 4 µM): 0.46 | relative viability (NCI-H2087; first compound 0.04 µM): 1.11 | relative viability (NCI-H2087; first compound 0.1265 µM): 1.09 | relative viability (NCI-H2087; first compound 0.4 µM): 1.07 | relative viability (NCI-H2087; first compound 1.265 µM): 0.994 | relative viability (NCI-H2087; first compound 4 µM): 0.964 | relative viability (LCLC-97TM1; first compound 0.04 µM): 0.631 | relative viability (LCLC-97TM1; first compound 0.1265 µM): 0.511 | relative viability (LCLC-97TM1; first compound 0.4 µM): 0.488 | relative viability (LCLC-97TM1; first compound 1.265 µM): 0.401 | relative viability (LCLC-97TM1; first compound 4 µM): 0.38 | relative viability (NCI-H2023; first compound 0.04 µM): 1 | relative viability (NCI-H2023; first compound 0.1265 µM): 1.02 | relative viability (NCI-H2023; first compound 0.4 µM): 1.08 | relative viability (NCI-H2023; first compound 1.265 µM): 0.892 | relative viability (NCI-H2023; first compound 4 µM): 0.982 | relative viability (A-427; first compound 0.04 µM): 0.998 | relative viability (A-427; first compound 0.1265 µM): 0.92 | relative viability (A-427; first compound 0.4 µM): 0.867 | relative viability (A-427; first compound 1.265 µM): 0.794 | relative viability (A-427; first compound 4 µM): 0.98 | relative viability (LC-2-ad; first compound 0.04 µM): 0.415 | relative viability (LC-2-ad; first compound 0.1265 µM): 0.456 | relative viability (LC-2-ad; first compound 0.4 µM): 0.558 | relative viability (LC-2-ad; first compound 1.265 µM): 0.412 | relative viability (LC-2-ad; first compound 4 µM): 0.529 | relative viability (NCI-H1792; first compound 0.04 µM): 0.648 | relative viability (NCI-H1792; first compound 0.1265 µM): 0.611 | relative viability (NCI-H1792; first compound 0.4 µM): 0.688 | relative viability (NCI-H1792; first compound 1.265 µM): 0.678 | relative viability (NCI-H1792; first compound 4 µM): 0.624 | relative viability (NCI-H520; first compound 0.04 µM): 0.974 | relative viability (NCI-H520; first compound 0.1265 µM): 1.02 | relative viability (NCI-H520; first compound 0.4 µM): 1.1 | relative viability (NCI-H520; first compound 1.265 µM): 0.907 | relative viability (NCI-H520; first compound 4 µM): 1.06 | relative viability (NCI-H596; first compound 0.04 µM): 0.972 | relative viability (NCI-H596; first compound 0.1265 µM): 1 | relative viability (NCI-H596; first compound 0.4 µM): 1.08 | relative viability (NCI-H596; first compound 1.265 µM): 0.767 | relative viability (NCI-H596; first compound 4 µM): 0.986 | relative viability (H3255; first compound 0.04 µM): 0.608 | relative viability (H3255; first compound 0.1265 µM): 0.469 | relative viability (H3255; first compound 0.4 µM): 0.458 | relative viability (H3255; first compound 1.265 µM): 0.444 | relative viability (H3255; first compound 4 µM): 0.521 | relative viability (NCI-H1650; first compound 0.04 µM): 1.32 | relative viability (NCI-H1650; first compound 0.1265 µM): 1.2 | relative viability (NCI-H1650; first compound 0.4 µM): 1.41 | relative viability (NCI-H1650; first compound 1.265 µM): 0.951 | relative viability (NCI-H1650; first compound 4 µM): 1.17 | relative viability (HCC-15; first compound 0.04 µM): 0.719 | relative viability (HCC-15; first compound 0.1265 µM): 0.713 | relative viability (HCC-15; first compound 0.4 µM): 0.767 | relative viability (HCC-15; first compound 1.265 µM): 0.737 | relative viability (HCC-15; first compound 4 µM): 0.654

— the supplement of paper PMC10307832
